ChEMBL document CHEMBL5126602, “Polo-like Kinase 1 Inhibitors in Human Cancer Therapy: Development and Therapeutic Potential” (J Med Chem, 2022)
Numbered stars: 1 amine (or outer) side, 2 acyl side, 3 side chain; on linkers, the order of the positions; unused ones are H or OH. Square brackets hold non-standard residues; d marks the D form. Peptide text beside a SMILES is read from it. X1 = O=C([C@H](Cc1cncn1CCCCc1cn(Cc2ccc(Oc3ccccc3)cc2F)nn1)N[*:1])[*:2]; pT = C[C@@H](OP(=O)(O)O)[C@H](N)C(=O)O

Tests used:
[1] = target: T1, Serine/threonine-protein kinase PLK3 (Homo sapiens, UniProt Q9H4B4); assay: Inhibition of 5-carboxyfluorescein-GPLATSpTPKNG-OH peptide binding to PLK3 (335 to 646 residues) PBD (unknown origin) at 100 uM preincubated for 1 hrs with compound followed by peptide addition and measured after 1 hrs by fluorescence polarization assay; settings: time 2.0 hrs
Target sequence in this assay (Q9H4B4 whole entry, looked up, the tested form may be a part): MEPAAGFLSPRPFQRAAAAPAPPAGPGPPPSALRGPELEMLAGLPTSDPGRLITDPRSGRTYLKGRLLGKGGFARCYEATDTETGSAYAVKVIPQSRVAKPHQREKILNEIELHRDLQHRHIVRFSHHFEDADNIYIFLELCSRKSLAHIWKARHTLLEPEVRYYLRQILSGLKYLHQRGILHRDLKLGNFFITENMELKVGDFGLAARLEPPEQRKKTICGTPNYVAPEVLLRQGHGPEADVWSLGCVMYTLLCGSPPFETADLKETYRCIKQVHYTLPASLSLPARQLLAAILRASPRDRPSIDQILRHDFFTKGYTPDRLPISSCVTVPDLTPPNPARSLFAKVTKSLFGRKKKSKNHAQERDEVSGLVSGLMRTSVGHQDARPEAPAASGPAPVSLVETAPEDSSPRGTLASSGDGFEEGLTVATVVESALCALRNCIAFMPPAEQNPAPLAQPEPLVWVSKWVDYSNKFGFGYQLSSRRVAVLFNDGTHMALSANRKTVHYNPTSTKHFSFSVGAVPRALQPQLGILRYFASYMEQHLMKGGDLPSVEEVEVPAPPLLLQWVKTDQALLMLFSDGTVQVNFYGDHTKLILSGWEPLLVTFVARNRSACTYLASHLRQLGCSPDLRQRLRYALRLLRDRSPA

[2] = target: T2, Serine/threonine-protein kinase PLK2 (Homo sapiens, UniProt Q9NYY3); assay: Inhibition of 5-carboxyfluorescein-GPMQTSpTPKNG-OH peptide binding to PLK2 (355 to 685 residues) PBD (unknown origin) preincubated for 1 hrs with compound followed by peptide addition and measured after 1 hrs by fluorescence polarization assay
[3] = target: T3, Serine/threonine-protein kinase PLK1 (Homo sapiens, UniProt P53350); assay: Inhibition of 5-carboxyfluoresceinGPMQSpTPLNG-OH peptide binding to N-terminal His7-tagged human PLK1 (326 to 603 residues) PBD expressed in Escherichia coli BL21 (DE3) cells preincubated for 1 hrs with compound followed by peptide addition and measured after 1 hrs by fluorescence polarization assay
[4] = target: T2, Serine/threonine-protein kinase PLK2; assay: Inhibition of Myc-tagged PLK2 PBD (unknown origin) expressed in HEK293T cells using 5CF-GPMQTSpTPKNG-NH2 as substrate preincubated for 30 mins followed by substrate addition and measured after 30 mins by fluorescence polarization assay
[5] = target: T3, Serine/threonine-protein kinase PLK1; assay: Inhibition of biotinylated p-T78 peptide binding to human HA-EGFP-PLK1 expressed in HEK293-A cells using TMB as substrate incubated for 1 hrs by ELISA plate reader based analysis
[6] = Solubility of the compound; format: physicochemical
[7] = Half-life in rat liver microsomes; format: ADME, Microsome
[8] = target: T3, Serine/threonine-protein kinase PLK1; assay: Inhibition of PLK1 (unknown origin) in the presence of ATP by ADP-Glo-kinase assay
[9] = target: T2, Serine/threonine-protein kinase PLK2; assay: Inhibition of PLK2 (unknown origin) in the presence of ATP by ADP-Glo-kinase assay
[10] = target: T1, Serine/threonine-protein kinase PLK3; assay: Inhibition of PLK3 (unknown origin) in the presence of ATP by ADP-Glo-kinase assay
Target sequence in this assay (Q9H4B4 whole entry, the tested form may be a part): as the sequence (Q9H4B4 whole entry, looked up, the tested form may be a part) above

HeLa [11] = assay: Antiproliferative activity against human HeLa cells assessed as inhibition of cell proliferation incubated for 24 hrs by BCA assay; format: functional, cell-based
[12] = target: T3, Serine/threonine-protein kinase PLK1; assay: Inhibition of 5-carboxyfluoresceinGPMQSpTPLNG-OH peptide binding to PLK1 (326 to 603 residues) PBD (unknown origin) preincubated for 1 hrs with compound followed by peptide addition and measured after 1 hrs by fluorescence polarization assay
[13] = target: T2, Serine/threonine-protein kinase PLK2; assay: Inhibition of 5-carboxyfluorescein-GPMQTSpTPKNG-OH peptide binding to C-terminal 6His-tagged human PLK2 (355 to 685 residues) PBD expressed in Rosetta BL21 (DE3) cells preincubated for 1 hrs with compound followed by peptide addition and measured immediately by fluorescence polarization assay
[14] = target: T3, Serine/threonine-protein kinase PLK1; assay: Inhibition of 5-carboxyfluoresceinGPMQSpTPLNG-OH peptide binding to human PLK1 (326 to 603 residues) PBD expressed in Rosetta BL21 (DE3) cells preincubated for 1 hrs with compound followed by peptide addition and measured immediately by fluorescence polarization assay
[15] = target: T3, Serine/threonine-protein kinase PLK1; assay: Inhibition of PLK1 PBD (unknown origin) dependent binding
MV4-11 = assay: Antiproliferative activity against human MV4-11 cells assessed as inhibition of cell growth incubated for 24 hrs by CCK-8 assay; format: functional, cell-based; settings: MV4-11, 24 h
[16] = target: Serine/threonine-protein kinase PLK1 (Homo sapiens, UniProt P53350, T210D); assay: Inhibition of PLK1 T210D mutant kinase domain (unknown origin) using casein as substrate preincubated for 3 hrs followed by substrate addition and measured after 30 mins in the presence of ATP by ADP-Glo kinase assay
[17] = target: T3, Serine/threonine-protein kinase PLK1; assay: Inhibition of human PLK1 in the presence of ATP
[18] = target: T3, Serine/threonine-protein kinase PLK1; assay: Inhibition of biotin labelled PoloBoxtide binding to GST/His-fused full length PLK1 (unknown origin) expressed in baculovirus infected Sf9 cells
SKW 6.4 = assay: Antiproliferative activity against human SKW 6.4 cells assessed as reduction in cell viability incubated for 72 hrs; format: functional, cell-based; settings: SKW 6.4, 72 h
HT-29 = assay: Antiproliferative activity against human HT-29 cells assessed as reduction in cell viability incubated for 72 hrs; format: functional, cell-based; settings: HT-29, 72 h
Detroit 562 = assay: Antiproliferative activity against human Detroit 562 cells assessed as reduction in cell viability incubated for 72 hrs; format: functional, cell-based; settings: Detroit 562, 72 h
U2OS = assay: Antiproliferative activity against human U2OS cells assessed as reduction in cell viability incubated for 72 hrs; format: functional, cell-based
A-431 = assay: Antiproliferative activity against human A-431 cells assessed as reduction in cell proliferation incubated for 72 hrs; format: functional, cell-based; settings: A-431, 72 h
LN-229 = assay: Antiproliferative activity against human LN-229 cells assessed as reduction in cell viability incubated for 72 hrs; format: functional, cell-based; settings: LN-229, 72 h
HCT-15 = assay: Antiproliferative activity against human HCT-15 cells assessed as reduction in cell viability incubated for 72 hrs; format: functional, cell-based; settings: HCT-15, 72 h
PC-3 = assay: Antiproliferative activity against human PC-3 cells assessed as reduction in cell viability incubated for 72 hrs; format: functional, cell-based; settings: PC-3, 72 h
SK-OV-3 = assay: Antiproliferative activity against human SK-OV-3 cells assessed as reduction in cell viability incubated for 72 hrs; format: functional, cell-based; settings: SK-OV-3, 72 h
MCF7 = assay: Antiproliferative activity against human MCF7 cells assessed as reduction in cell proliferation incubated for 72 hrs; format: functional, cell-based; settings: MCF7, 72 h
A549 = assay: Antiproliferative activity against human A549 cells assessed as reduction in cell viability incubated for 72 hrs; format: functional, cell-based; settings: A549, 72 h
[19] = target: T3, Serine/threonine-protein kinase PLK1; assay: Inhibition of PLK1 in thymidine synchronized human HeLa cells using casein as substrate preincubated with compound for 13 hrs followed by substrate addition and measured after 12 to 36 hrs in the presence of [gamma33P]ATP by autoradiography based Western blot analysis; format: cell-based
[20] = target: T3, Serine/threonine-protein kinase PLK1; assay: Inhibition of biotinylated PLHSpT peptide binding to n-terminal GST-tagged full length human PLK1 PBD preincubated with compound for 30 mins followed by peptide addition and measured after 1 hrs by time-resolved fluorescence energy transfer assay
HeLa [21] = assay: Antiproliferative activity against human HeLa cells assessed as inhibition of cell proliferation incubated for 72 hrs by MTT assay; format: functional, cell-based
[22] = target: T2, Serine/threonine-protein kinase PLK2; assay: Inhibition of 5-carboxyfluorescein-GPMQTSpTPKNG-OH peptide binding to PLK2 (355 to 685 residues) PBD (unknown origin) preincubated for 1 hrs with compound followed by peptide addition and measured after 75 min by fluorescence polarization assay
[23] = target: T3, Serine/threonine-protein kinase PLK1; assay: Inhibition of 5-carboxyfluoresceinGPMQSpTPLNG-OH peptide binding to PLK1 (326 to 603 residues) PBD (unknown origin) preincubated for 1 hrs with compound followed by peptide addition and measured after 75 mins by fluorescence polarization assay
[24] = target: T1, Serine/threonine-protein kinase PLK3; assay: Inhibition of 5-carboxyfluorescein-GPLATSpTPKNG-OH peptide binding to PLK3 (335 to 646 residues) PBD (unknown origin) at 100 uM preincubated for 1 hrs with compound followed by peptide addition and measured after 75 mins by fluorescence polarization assay; settings: time 135.0 min
Target sequence in this assay (Q9H4B4 whole entry, looked up, the tested form may be a part): as above

T3 sequence (P53350 whole entry, the tested form may be a part): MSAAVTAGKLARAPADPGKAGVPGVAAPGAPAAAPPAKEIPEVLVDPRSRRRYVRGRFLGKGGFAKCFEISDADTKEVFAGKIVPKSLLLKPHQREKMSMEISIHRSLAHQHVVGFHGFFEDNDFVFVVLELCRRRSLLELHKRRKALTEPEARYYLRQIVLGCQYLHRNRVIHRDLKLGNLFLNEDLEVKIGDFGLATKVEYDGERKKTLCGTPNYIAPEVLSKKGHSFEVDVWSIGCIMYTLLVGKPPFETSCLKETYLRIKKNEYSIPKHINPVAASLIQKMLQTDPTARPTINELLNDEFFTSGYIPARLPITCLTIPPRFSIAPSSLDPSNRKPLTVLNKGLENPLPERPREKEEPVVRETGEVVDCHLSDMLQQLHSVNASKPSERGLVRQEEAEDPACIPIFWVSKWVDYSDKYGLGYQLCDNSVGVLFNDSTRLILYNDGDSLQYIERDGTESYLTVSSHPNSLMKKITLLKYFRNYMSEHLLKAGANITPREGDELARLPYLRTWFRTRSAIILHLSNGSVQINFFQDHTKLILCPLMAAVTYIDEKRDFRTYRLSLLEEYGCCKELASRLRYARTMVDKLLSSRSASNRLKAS
T2 sequence (Q9NYY3 whole entry, the tested form may be a part): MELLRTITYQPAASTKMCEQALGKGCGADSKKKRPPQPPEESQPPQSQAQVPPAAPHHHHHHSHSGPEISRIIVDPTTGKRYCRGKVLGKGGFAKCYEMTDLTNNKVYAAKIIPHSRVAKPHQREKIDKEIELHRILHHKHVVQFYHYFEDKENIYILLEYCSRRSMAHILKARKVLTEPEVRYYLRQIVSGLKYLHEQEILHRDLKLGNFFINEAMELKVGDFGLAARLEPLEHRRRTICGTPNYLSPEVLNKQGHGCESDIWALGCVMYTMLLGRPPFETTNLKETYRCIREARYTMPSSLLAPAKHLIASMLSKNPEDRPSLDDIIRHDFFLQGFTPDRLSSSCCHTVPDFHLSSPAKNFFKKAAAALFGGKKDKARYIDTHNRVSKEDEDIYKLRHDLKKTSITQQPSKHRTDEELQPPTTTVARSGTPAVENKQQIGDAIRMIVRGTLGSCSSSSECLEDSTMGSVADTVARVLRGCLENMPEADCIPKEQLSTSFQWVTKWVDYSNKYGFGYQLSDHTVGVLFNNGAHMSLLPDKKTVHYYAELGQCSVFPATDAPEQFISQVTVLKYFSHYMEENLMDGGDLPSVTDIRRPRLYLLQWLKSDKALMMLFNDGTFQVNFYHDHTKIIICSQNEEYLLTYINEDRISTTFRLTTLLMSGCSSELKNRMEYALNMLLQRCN
Sequence of Serine/threonine-protein kinase PLK1 (Homo sapiens, UniProt P53350, T210D) (P53350 2-603 T210D limits assumed): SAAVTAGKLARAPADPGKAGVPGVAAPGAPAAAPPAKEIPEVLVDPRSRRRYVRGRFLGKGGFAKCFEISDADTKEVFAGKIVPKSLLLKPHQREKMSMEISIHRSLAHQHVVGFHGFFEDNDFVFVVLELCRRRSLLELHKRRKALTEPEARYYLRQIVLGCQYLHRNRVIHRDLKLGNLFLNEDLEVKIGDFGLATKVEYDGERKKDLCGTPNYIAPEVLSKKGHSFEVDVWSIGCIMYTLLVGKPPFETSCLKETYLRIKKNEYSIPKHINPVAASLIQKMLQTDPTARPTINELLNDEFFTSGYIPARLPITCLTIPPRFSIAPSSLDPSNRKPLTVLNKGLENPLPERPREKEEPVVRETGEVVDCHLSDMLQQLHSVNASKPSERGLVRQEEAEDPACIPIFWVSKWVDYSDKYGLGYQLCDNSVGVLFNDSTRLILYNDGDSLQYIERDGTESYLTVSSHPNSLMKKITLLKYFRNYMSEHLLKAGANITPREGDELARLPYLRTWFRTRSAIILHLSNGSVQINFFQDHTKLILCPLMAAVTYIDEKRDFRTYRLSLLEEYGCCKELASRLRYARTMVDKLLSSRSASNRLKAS

## CC1=C/C(=N/OC(=O)c2ccccc2C)C(C)=CC1=O
[1]
  inhibition: 49%
[2]
  IC50: 14.2 µM
[3]
  IC50: 1.36 µM

## CC(=O)N1CCC[C@H]1C(=O)N[C@@H](CC(C)C)C(=O)N[C@@H](Cc1cncn1CCCCc1cn(Cc2ccc(Oc3ccccc3)cc2F)nn1)C(=O)N[C@@H](CO)C(=O)N[C@H](C(N)=O)[C@@H](C)OP(=O)(O)O (Ac-PL[X1]S[pT]-NH2)
[4]
  IC50: 5.9 µM

## C[C@H](OP(=O)(O)O)[C@H](NC(=O)c1ccc2c(c1)nc(CCCCc1ccccc1)n2CCc1ccccc1)C(N)=O
[5]
  IC50: 4.5 µM

## COc1cccc(CC(=O)NCCCn2c(=O)c3cc(F)ccc3n3c(=S)[nH]nc23)c1
[6]
  solubility: > 60 µg/mL
[7]
  half-life: 20.1 min

## O=c1c2cc(F)ccc2n2c(=S)[nH]nc2n1CCc1ccccn1
[6]
  solubility: > 60 µg/mL
[7]
  half-life: > 30 min

## COc1cc(O)c2c(=O)cc(-c3ccccc3)oc2c1OC [Moslosooflavone]
[8]
  IC50: 10.2 µM
[9]
  IC50: 952 µM
[10]
  IC50: 5120 µM

## CC1=C/C(=N/OC(=O)c2ccc(CNC(=O)CCc3cn(CCCCCCOCCOCCNC(=O)CC45CC6CC(CC(C6)C4)C5)nn3)cc2C)C(C)=CC1=O
[1]
  inhibition: 47%
HeLa [11]
  IC50: 14 µM
[2]
  IC50: 51.9 µM
[12]
  IC50: 10.5 µM

## O=c1c2cc(F)ccc2n2c(=S)[nH]nc2n1CCc1ccncc1
[6]
  solubility: > 60 µg/mL
[7]
  half-life: > 30 min

## CC1=CC(=O)C(C(C)C)=C/C1=N/OC(=O)c1ccccc1C
[13]
  IC50: 18.7 µM

## N#Cc1cccc(CN2C[C@@H]3C[C@H](C2)c2c(-c4ccc5ccccc5c4)ccc(=O)n2C3)c1
[14]
  IC50: 17.9 µM

## O=C1C[C@@H](c2ccccc2)Oc2cc(O)c(O)c(O)c21
[8]
  IC50: 6.3 µM
[9]
  IC50: 242 µM
[10]
  IC50: 1600 µM

## CC(=O)N1CCC[C@H]1C(=O)N[C@@H](CC(C)C)C(=O)N[C@@H](Cc1cn(CCCCCCCCc2ccccc2)nn1)C(=O)N[C@@H](CO)C(=O)N[C@H](C(N)=O)[C@@H](C)OP(=O)(O)O
[4]
  IC50: 0.69 µM

## CCCCCCCCCC1=CO[C@]2(C[C@H](C(=O)O)[C@@](CC(=O)O)(C(=O)O)O2)C1=O
[15]
  IC50: 128 µM

## CC[C@@H]1C(=O)N(C)c2cnc(Nc3ccc(C(=O)NCCOCCOCCNc4cccc5c4C(=O)N(C4CCC(=O)NC4=O)C5=O)cc3OC)nc2N1C1CCCC1 (stereo partly drawn)
MV4-11
  IC50: 0.00448 µM

## O=C(O)[C@H]1O[C@@H](Oc2cc3oc(-c4ccccc4)cc(=O)c3c(O)c2O)[C@H](O)[C@@H](O)[C@@H]1O [BAICALIN]
[16]
  IC50: 3.61 µM

## CCCCCCCCCC1=CO[C@]2(C[C@H](C(=O)O)[C@@](CC(=O)O)(C(=O)OCCCC)O2)C1=O
[15]
  IC50: 102 µM

## C=CCn1c(=O)c2cnc(Nc3ccc(N4CCN(C)CC4)cc3)nc2n1-c1cccc(C(C)(C)O)n1 [ADAVOSERTIB]
[17]
  IC50: 0.015 µM

## N#Cc1ccc(CC(=O)NCCCn2c(=O)c3cc(F)ccc3n3c(=S)[nH]nc23)cc1
[6]
  solubility: > 60 µg/mL
[7]
  half-life: > 30 min

## Cc1ccc(NC(=S)NCCNc2nccc(C(F)(F)F)n2)c(C)c1
[18]
  IC50: 1 µM

## O=c1c2cc(F)ccc2n2c(=S)[nH]nc2n1CCC(F)(F)F
[6]
  solubility: > 60 µg/mL
[7]
  half-life: > 30 min

## Cc1onc(-c2ccccc2)c1/C=C1\C(=O)Nc2ccccc21
[18]
  IC50: 20 µM

## COc1ccc(CCNCc2ccc(OCc3ccc(Cl)nc3)c(OC)c2)cc1OC
SKW 6.4
  EC50: 5 µM
HT-29
  EC50: 5 µM
Detroit 562
  EC50: 5 µM
U2OS
  EC50: 5 µM
A-431
  EC50: 33 µM
LN-229
  EC50: 5 µM
HCT-15
  EC50: 5 µM
PC-3
  EC50: 5 µM
SK-OV-3
  EC50: 5 µM
MCF7
  EC50: 12 µM
A549
  EC50: 5 µM
[19]
  EC50: 0.0002 µM

## COc1c2c(cc3c1C(CC(=O)c1ccccn1)[N+](C)(C)CC3)OCO2 (stereo not drawn)
[20]
  IC50: 2.1 µM
HeLa [21]
  IC50: 22.4 µM

## O=c1cc(-c2ccccc2)oc2cc(O)c(O)c(O)c12 [BAICALEIN]
[8]
  IC50: 9 µM
[9]
  IC50: 314 µM
[10]
  IC50: 40 µM

## CC1=C/C(=N/OC(=O)c2ccc(CNC(=O)CCc3cn(CCCCCCOCCOCCNC(=O)[C@H](C)CCC45CC6CC(CC(C6)C4)C5)nn3)cc2C)C(C)=CC1=O
[22]
  IC50: 54.8 µM
HeLa [11]
  IC50: 9.2 µM
[23]
  IC50: 48.2 µM
[24]
  inhibition: 34%

## O=c1c2cc(F)ccc2n2c(=S)[nH]nc2n1CC1CC1
[6]
  solubility: > 60 µg/mL
[7]
  half-life: > 30 min
